Experimental data taken from patent US20030129678A1, “Methods, pharmaceutical formulations and kits for identification of subjects at risk for cancer” (priority 1999, published 2003).

Key:
[1] = system: A375 human melanoma tumor cells; test: In vitro cytotoxicity (51Cr release), primed and activated human macrophages against A375 cells; details: human macrophages (SC hematopoietic cell line and a healthy volunteer); priming with PMA (1 μm), activation with CCPA (1 μm)
Procedure: (§1) B-16 melanoma cells are washed with serum free RPMI medium by centrifugation. 25-30 μCi of Na ^51Cr is diluted to 1 ml of RPMI and transferred to the melanoma cells suspension. The melanoma cells are incubated with Na ^51Cr at 37° C. for 1 hour. The unincorporated radioactivity is removed by centrifugation at 1000×g for 10 minutes. The melanoma cells are allowed to leak for 2 hours and then washed again. The final suspension is diluted in RPMI. The cell number is counted in a hemocytometer.
(§2) Macrophages are washed with medium containing 100 mM MgCl2, 2 U/ml adenosine deaminase and 10% fetal bovine serum. Macrophages are then challenged with 1 μM PMA in the above medium for 2 hours and then stimulated with different concentrations of (0-1 μM) of 2-chloro-N^6-cyclopentyl adenosine (CCPA) for 30 minutes. The macrophages are then incubated with ^51Cr-labelled B-16 melanoma cells at a ratio of 20:1. Six hours later, a fraction of the supernatant is aspirated and counted in a gamma counter.
(§3) Total releasable counts are measured by lysing the melanoma cells in hypotonic medium.
(§4) The results are expressed as percentage (%) ^51Cr release as follows: [formula]

[2] = system: mouse P815 mastocytoma tumor cells; test: In vitro cytotoxicity (51Cr release), primed and activated mouse macrophages against P815 cells; details: mouse macrophages (IC-21); priming with PMA (1 μM), activation with CCPA (1 μM)
Procedure: as §1, §2, §3, §4
This same protocol is repeated, except that P815 mouse mastocytoma tumor cells are used instead of the B-16 melanoma cells.

TNF-α = test: Functional experiments: TNF-α release from macrophages (ELISA); format: cell-based, mouse
Procedure: Macrophages are then challenged with 1 μM PMA in the above medium for 2 hours and then stimulated with different concentrations of (0-1 μM) of 2-chloro-N^6-cyclopentyl adenosine (CCPA) at 37° C. for 1-6 hours. The supernatant is collected and the TNF-α levels are estimated by commercially available ELISA kits (R & D Systems, Minneapolis, Minn.).

[3] = system: mouse B-16 melanoma cells; test: In vitro cytotoxicity (51Cr release), primed and activated mouse macrophages against B-16 melanoma cells; details: priming with PMA (1 μm), activation with CCPA (lam)
Procedure: as §1, §2, §3, §4
Percentage ^51 Cr release is a measure of the lysing of cells (i.e., killing of cells), and is therefore an indicia of cytotoxicity.

[4] = system: normal murine bone marrow cells; details: cited from earlier work
K-562 leukemia = details: cited from earlier work
[5] = system: LNCaP prostate carcinoma cells; details: cited from earlier work
Nb2 lymphoma = details: cited from earlier work
[6] = target: T1, A1 adenosine receptor expression (Homo sapiens, UniProt P30542); test: Saturation binding in human macrophages (SC) after cisplatin treatment; format: cell-based; details: human macrophages (SC, ATCC); cisplatin 2.5 μM for 24 hours
T1 construct: This same protocol is repeated using membranes from human macrophages (SC cells)
T1 sequence (P30542 1-326): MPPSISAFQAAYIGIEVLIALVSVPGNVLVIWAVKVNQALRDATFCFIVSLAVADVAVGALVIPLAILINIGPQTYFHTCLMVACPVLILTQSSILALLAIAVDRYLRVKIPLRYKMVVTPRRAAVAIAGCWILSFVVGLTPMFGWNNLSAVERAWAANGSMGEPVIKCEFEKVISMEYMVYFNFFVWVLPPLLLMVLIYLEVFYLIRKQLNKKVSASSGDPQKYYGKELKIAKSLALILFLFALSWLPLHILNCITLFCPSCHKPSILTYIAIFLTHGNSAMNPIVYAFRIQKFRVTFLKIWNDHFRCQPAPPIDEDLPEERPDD
Procedure: Incubation of the macrophage fractions with the A1 adenosine receptor ligand ^125I-BWA844U (see Patel et al., J. Pharmacol. Exp. Ther. 33:585 (1988) in concentrations ranging from 1.25-20 nM was carried out at 37° C. for 1 hour. Non-specific binding is determined in the presence of 1 mM theophylline. Following incubation, membrane bound radioactivity is separated by filtration over a cell harvester and counted in a gamma counter. The data is analyzed by non-linear regression using GraphPad Prism software. Thc Bmax and kd values are calculated from the analyzed data.
This same protocol is repeated using membranes from human macrophages (SC cells).

A1 adenosine receptors = target: T2, A1 adenosine receptors (Mus musculus, UniProt Q60612); test: Competition experiments  against 125I-BWA844U in macrophage membranes; format: binding
T2 sequence (Q60612 1-326): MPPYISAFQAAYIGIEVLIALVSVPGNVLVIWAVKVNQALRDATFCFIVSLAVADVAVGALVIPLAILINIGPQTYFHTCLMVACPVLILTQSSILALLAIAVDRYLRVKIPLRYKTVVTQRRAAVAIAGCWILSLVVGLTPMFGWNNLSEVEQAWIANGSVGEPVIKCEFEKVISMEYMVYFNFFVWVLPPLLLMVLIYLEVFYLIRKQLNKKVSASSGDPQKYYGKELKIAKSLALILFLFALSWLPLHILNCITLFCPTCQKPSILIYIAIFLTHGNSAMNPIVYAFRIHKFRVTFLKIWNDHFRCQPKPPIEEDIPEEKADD
Procedure: Non-specific binding is determined in presence of 1 mM theophylline. Membrane bound radioactivity is separated by filtration over a cell harvester. The data is analyzed by non-linear regression analysis using GraphPad prism software and the Ki value is calculated.

OC[C@H]1O[C@@H](n2cnc3c(NC4CCCC4)nc(Cl)nc32)[C@H](O)[C@@H]1O [CCPA, 2-chloro-N^6-cyclopentyladenosine]
cytotoxicity to A375 human melanoma tumor cells [1]: cytotoxic
cytotoxicity for mouse P815 mastocytoma tumor cells [2]: cytotoxic
TNF-α release in WBC264-9C macrophages compared with IC-21 macrophages (TNF-α; priming with PMA 1 μM, activation with CCPA 0-1 μM, 1-6 hours): lower
cytotoxicity of mouse B-16 melanoma cells ([3]; macrophages from LPS-resistant mice (WBC264-9C, ATCC)): 20%
cytotoxicity of mouse B-16 melanoma cells ([3]; macrophages from LPS-sensitive mice (IC-21, ATCC)): 50%

Nc1ncnc2c1ncn2[C@@H]1O[C@H](CO)[C@@H](O)[C@H]1O [adenosine]
proliferation [4]: stimulating proliferation
tumor cell growth (K-562 leukemia): inhibits tumor cell growth
tumor cell growth [5]: inhibits tumor cell growth
tumor cell growth (Nb2 lymphoma): inhibits tumor cell growth

N.N.[Cl][Pt][Cl] [cisplatin]
increase of A1 adenosine receptor expression (Bmax) [6]: approximately three-fold
effect of pretreatment on TNF-α release from WBC264-9C macrophages (TNF-α; cisplatin 2.5 μM for 24 hours, then PMA and CCPA): increases TNF-α release
effect of pretreatment on affinity of WBC264-9C macrophage membranes for MCP-1 (A1 adenosine receptors; cisplatin 2.5 μM for 24 hours): increases the affinity

MCP-1: human recombinant monocyte chemotactic protein, chemoattractive for monocytes
affinity (Ki) in membranes from WBC264-9C macrophages compared with IC-21 macrophages (A1 adenosine receptors; competition with 0.1-0.2 nM 125I-BWA844U): lower
